# Read-outs that look alike come from different tables or passages of the source.
# Experiments:
# [1] = system: C. difficile strains (N = 27); experiment: MIC by broth microdilution against C. difficile clinical isolates; type: cell-based; conditions: Clostridioides difficile, 27 isolates
# Method: (§1) The activity of omadacycline was tested in vitro against 27 clinical isolates of C. difficile. […] The experiments were carried out using broth and agar microdilution methods according to Clinical and Laboratory Standards Institute (CLSI) guidelines. […] Each test was run in duplicate.
# [2] = system: C. difficile strains (N = 27); experiment: MIC by agar dilution against C. difficile clinical isolates; type: cell-based; conditions: Clostridioides difficile, 27 isolates
# Method: as §1
# [3] = system: C. difficile strain ATCC 43596; experiment: MIC90 against the infection model strain; type: cell-based; conditions: Clostridioides difficile, ATCC43596
# [4] = system: C. difficile strain ATCC 43596; experiment: Hamster model of C. difficile-associated diarrhea, survival; type: in vivo
# [5] = system: gut microflora populations; experiment: In vitro human gut model, gut microflora populations (Example 3); type: cell-based
# Excerpt: (§2) An in vitro gut model was used to study the effects of omadacycline instillation on both normal microflora populations and C. difficile. This gut model has been validated against gut contents from sudden death victims and provides a very close simulation of bacterial activities and composition in different areas of the hindgut (Macfarlane et al., Microb. Ecol. 35, 180-7, 1998). The model consists of three vessels aligned in series, and top-fed with a complex growth medium. All three vessels are continuously stirred, anaerobically maintained at 37° C. and regulated to reflect in vivo differences, including pH, from proximal to distal colon. The three anaerobic fermentation vessels are maintained at increasing alkalinity (from pH 5.5±0.2 for vessel 1; pH 6.2±0.2 for vessel 2; and pH 6.8±0.2 for vessel 3). The increasing alkalinity in combination with the nutrient limited conditions are designed to simulate the human gut from the proximal to the distal colon. Inoculation with pooled human feces (from healthy elderly volunteers) is followed by a period of equilibration, during which bacterial populations respond to their environmental conditions and reach a steady state. At this stage, dietary ingredients, prebiotics, pathogens and/or antibiotics may be added, and the bacterial populations monitored. Specific components of the gut flora and relevant pathogens may be closely monitored and their behavior analyzed.
# The gut model was inoculated with pooled fecal slurry (5 volunteers ≥60 years of age with no history of antibiotic therapy in the previous 3 months) and left for 2 weeks to allow the bacterial populations to achieve steady state. A single inoculum (˜10^7 cfu/mL) of C. difficile spores (PCR ribotype 027 strain 210) was added into vessel 1 of the gut model on day 14. One week later, on day 21, a second aliquot of C. difficile spores was added, and antibiotic instillation commenced. Omadacycline instillation (430 mg/L, once daily, for 7 days) commenced on day 21.
# (§3) Gut microbiota bacterial populations and C. difficile total viable counts and spore counts were enumerated daily by culture on selective and non-selective agars. C. difficile populations were monitored in all three vessels, and all other bacterial groups (total obligate anaerobes, total facultative anaerobes, lactose fermenting enterobacteriaceae, enterococci, total clostridia, lactobacilli, bifidobacteria, B. fragilis group) were monitored in vessels 2 and 3 only. Vessel 3 is of most physiological relevance in terms of propensity to induce CDI. C. difficile total viable counts and spores counts were monitored using viable counting and a differential alcohol shock viable count on selective agars.
# [6] = system: C. difficile PCR ribotype 027 strain 210; experiment: In vitro human gut model, C. difficile germination, proliferation and toxin production (Example 3); type: cell-based; conditions: 430 mg/L once daily for 7 days
# Excerpt: as §2, with “Inoculation with pooled human feces (from healthy elderly volunteers) is followed by a period of equilibration, during which bacterial populations respond to their environmental conditions and reach a steady state.” left out, “analyzed. […]” for “analyzed.”
# as §3, with “Vessel 3 is of most physiological relevance in terms of propensity to induce CDI.” left out
# From day 14 onwards C. difficile cytotoxin was measured using a quantitative VERO cell cytotoxicity assay. […] Concentrations of omadacyline were measured by large-plate bioassay using Wilkins Chalgren agar with Kocuria rhizophila as the indicator organism.
# [7] = Elimination of an oral dose via the biliary/fecal pathway; type: in vivo
# [8] = oral 50 mg/kg/day for 5 days, N=10
# [9] = vessels 2 and 3, 430 mg/L once daily for 7 days
# [10] = vessels 2 and 3, 430 mg/L once daily for 7 days, fell below limit of detection
compound,measurement,setting,value
CN(C)c1cc(CNCC(C)(C)C)c(O)c2c1C[C@H]1C[C@H]3[C@H](N(C)C)C(O)=C(C(N)=O)C(=O)[C@@]3(O)C(O)=C1C2=O (stereo in doubt) [Omadacycline],MIC90,[1]; read-out: MIC90 by broth dilution,0.06 µg/mL
same,MIC50,"[1]; Wilkins-Chalgren broth, 48 hours anaerobic",60 µg/mL
same,MIC90,"[1]; Wilkins-Chalgren broth, 48 hours anaerobic, read-out: Broth Microdilution MIC90",60 µg/mL
same,MIC90,[2],0.12 µg/mL
same,MIC90,[3]; read-out: MIC90,0.06 µg/mL
same,MIC90,"[3]; replicate plate A, read-out: MIC90 Plate A",0.06 µg/mL
same,MIC90,"[3]; replicate plate B, read-out: MIC90 Plate B",0.06 µg/mL
same,percent survival at day 2 post infection,"[4]; oral 50 mg/kg/day for 5 days (clindamycin: 10 mg/kg SC pre-treatment only), N=10",100%
same,Median Survival,"[4]; oral 50 mg/kg/day for 5 days (clindamycin: pre-treatment only), followed up to 21 days",12 days
same,percent survival by day 3,[4]; [8],60%
same,percent survival on day 13,[4]; [8],40%
same,percent survival on day 16,[4]; [8],0%
same,time for all populations to return to steady state levels post antimicrobial exposure,[5]; after end of dosing,approximately 1 week
same,Enterobacteriacea populations,[5]; [9],remained undisturbed
same,decrease in B. fragilis group,[5]; [9],~3 log10 cfu/mL
same,decrease in Enterococcus spp.,[5]; [9],~4 log10 cfu/mL
same,decrease in Lactobacillus spp.,[5]; [9],~2 log10 cfu/mL
same,decline in Bifidobacteria population,[5]; [10],~6 log10 cfu/mL
same,decline in Clostridia population,[5]; [10],~6 log10 cfu/mL
same,C. difficile vegetative cell proliferation,[6]; all three vessels,no vegetative cell proliferation observed
same,signs of simulated C. difficile infection,[6]; all three vessels,did not lead to any signs of simulated C. difficile infection
same,C. difficile toxin detection (VERO cell cytotoxicity assay),[6]; any vessels,No toxin was detected
same,proportion of the absorbed omadacycline eliminated in the gut (biliary/fecal elimination pathway),[7],approximately 60%

# Reference: patent US20250049819A1, “METHODS FOR TREATING AND PREVENTING C. DIFFICILE INFECTION” (Paratek Pharmaceuticals, Inc., priority 2016, published 2025)
